3 h FOB score data for 26 substances are collected here from the OligoGym collection.

HELM strings list units from the 5' end as sugar, base in round brackets, then linkage (d deoxyribose, r ribose, m 2'-O-methyl, p phosphodiester). Strings are as the collection lists them; they lack the last nucleoside at the 3' end of the tested compound. [moe] = 2'-O-(2-methoxyethyl) (MOE); [sp] = phosphorothioate linkage; [m5C] = 5-methylcytosine

The series has as its target GFAP. In words: mouse, dose not given. Conditions: ASO.
In the case of “RNA1{[moe](T)[sp].[moe](G)p.[moe](T)p.[moe](G)p.[moe](A)[sp].d([m5C])[sp].d(T)[sp].d(A)[sp].d(T)[sp].d([m5C])[sp].d(T)[sp].d(A)[sp].d(G)[sp].[moe](G)p.[moe](A)p.[moe](T)[sp].[moe](T)}$$$$ (last 3' nucleoside missing)”, the 3 h FOB score came out at 3 score 0-7. “RNA1{[moe](T)[sp].[moe](G)p.[moe](T)p.[moe](G)p.[moe](T)[sp].d(A)[sp].d(T)[sp].d(T)[sp].d(A)[sp].d(G)[sp].d(G)[sp].d(A)[sp].d(T)[sp].[moe]([m5C])p.[moe]([m5C])p.[moe]([m5C])[sp].[moe](A)}$$$$ (last 3' nucleoside missing)” displayed a 3 h FOB score of 4 score 0-7. The same measure for “RNA1{[moe](T)[sp].[moe](G)p.[moe](T)p.[moe](G)p.[moe](T)p.[moe](A)p.d(T)[sp].d(T)[sp].d(A)[sp].d(G)[sp].d(G)[sp].d(A)[sp].d(T)[sp].d([m5C])[sp].d([m5C])[sp].d([m5C])[sp].[moe](A)p.[moe](T)[sp].[moe]([m5C])}$$$$ (last 3' nucleoside missing)”: 3 score 0-7; for “RNA1{[moe](T)[sp].[moe](G)p.[moe](T)p.[moe](G)p.[moe](T)p.d(A)[sp].d(T)[sp].d(T)[sp].d(A)[sp].d(G)[sp].d(G)[sp].d(A)[sp].d(T)[sp].d([m5C])[sp].d([m5C])[sp].[moe]([m5C])p.[moe](A)p.[moe](T)[sp].[moe]([m5C])}$$$$ (last 3' nucleoside missing)”: 3 score 0-7; for “RNA1{[moe](T)[sp].[moe](G)p.[moe](T)p.[moe](G)p.[moe]([m5C])[sp].d(T)[sp].d(T)[sp].d(T)[sp].d(A)[sp].d(G)[sp].d(T)[sp].d(G)[sp].d(A)[sp].d([m5C])[sp].d([m5C])[sp].[moe](T)p.[moe](G)p.[moe](T)[sp].[moe](G)}$$$$ (last 3' nucleoside missing)”: 5 score 0-7. The substance “RNA1{[moe](T)[sp].[moe](G)p.[moe](T)p.[moe](G)p.d(T)[sp].d(A)[sp].d(T)[sp].d(T)[sp].d(A)[sp].d(G)[sp].d(G)[sp].d(A)[sp].d(T)[sp].d([m5C])[sp].[moe]([m5C])p.[moe]([m5C])p.[moe](A)p.[moe](T)[sp].[moe]([m5C])}$$$$ (last 3' nucleoside missing)” had a 3 h FOB score of 3 score 0-7. Take “RNA1{[moe](T)[sp].[moe](G)p.[moe](T)p.[moe]([m5C])p.[moe](T)[sp].d(T)[sp].d(T)[sp].d(A)[sp].d(T)[sp].d(T)[sp].d(T)[sp].d(T)[sp].d(T)[sp].[moe]([m5C])p.[moe]([m5C])p.[moe](T)[sp].[moe]([m5C])}$$$$ (last 3' nucleoside missing)”: the 3 h FOB score is 1 score 0-7. “RNA1{[moe](T)[sp].[moe](G)p.[moe](T)p.[moe]([m5C])p.[moe](T)[sp].d(T)[sp].d(T)[sp].d(A)[sp].d(T)[sp].d(T)[sp].d(T)[sp].d(T)[sp].d(T)[sp].d([m5C])[sp].d([m5C])[sp].[moe](T)p.[moe]([m5C])p.[moe](A)[sp].[moe](G)}$$$$ (last 3' nucleoside missing)” came in with a 3 h FOB score of 2 score 0-7.

For the substance “RNA1{[moe](T)[sp].[moe](G)p.[moe](T)p.[moe]([m5C])p.[moe](T)p.[moe](T)p.d(T)[sp].d(A)[sp].d(T)[sp].d(T)[sp].d(T)[sp].d(T)[sp].d(T)[sp].d([m5C])[sp].d([m5C])[sp].d(T)[sp].[moe]([m5C])p.[moe](A)[sp].[moe](G)}$$$$ (last 3' nucleoside missing)”, the 3 h FOB score was 1 score 0-7. The substance “RNA1{[moe](T)[sp].[moe](G)p.[moe](T)p.[moe]([m5C])p.d(T)[sp].d(T)[sp].d(T)[sp].d(A)[sp].d(T)[sp].d(T)[sp].d(T)[sp].d(T)[sp].d(T)[sp].d([m5C])[sp].[moe]([m5C])p.[moe](T)p.[moe]([m5C])p.[moe](A)[sp].[moe](G)}$$$$ (last 3' nucleoside missing)” showed a 3 h FOB score of 2 score 0-7. “RNA1{[moe](T)[sp].[moe](G)p.[moe]([m5C])p.[moe](T)p.[moe](T)[sp].d(T)[sp].d(T)[sp].d(G)[sp].d([m5C])[sp].d([m5C])[sp].d([m5C])[sp].d([m5C])[sp].d([m5C])[sp].d(T)[sp].d([m5C])[sp].[moe](G)p.[moe](A)p.[moe](A)[sp].[moe](T)}$$$$ (last 3' nucleoside missing)” returned a 3 h FOB score of 4 score 0-7. The substance “RNA1{[moe](T)[sp].[moe](G)p.[moe]([m5C])p.[moe]([m5C])p.[moe](A)[sp].d(T)[sp].d(T)[sp].d(T)[sp].d(A)[sp].d(T)[sp].d([m5C])[sp].d(T)[sp].d(G)[sp].[moe](T)p.[moe](G)p.[moe]([m5C])[sp].[moe](T)}$$$$ (last 3' nucleoside missing)” registered a 3 h FOB score of 3 score 0-7. On to “RNA1{[moe](T)[sp].[moe](G)p.[moe]([m5C])p.[moe]([m5C])p.[moe](A)p.[moe](T)p.d(T)[sp].d(T)[sp].d(A)[sp].d(T)[sp].d([m5C])[sp].d(T)[sp].d(G)[sp].d(T)[sp].d(G)[sp].d([m5C])[sp].[moe](T)p.[moe](T)[sp].[moe](T)}$$$$ (last 3' nucleoside missing)”, for which the 3 h FOB score came to 2 score 0-7. Turning to “RNA1{[moe](T)[sp].[moe](G)p.[moe]([m5C])p.[moe]([m5C])p.[moe](A)p.d(T)[sp].d(T)[sp].d(T)[sp].d(A)[sp].d(T)[sp].d([m5C])[sp].d(T)[sp].d(G)[sp].d(T)[sp].d(G)[sp].[moe]([m5C])p.[moe](T)p.[moe](T)[sp].[moe](T)}$$$$ (last 3' nucleoside missing)”, the 3 h FOB score stood at 1 score 0-7. In the case of “RNA1{[moe](T)[sp].[moe](G)p.[moe]([m5C])p.[moe]([m5C])p.[moe]([m5C])[sp].d([m5C])[sp].d([m5C])[sp].d([m5C])[sp].d(G)[sp].d([m5C])[sp].d([m5C])[sp].d([m5C])[sp].d(T)[sp].d([m5C])[sp].d([m5C])[sp].[moe](T)p.[moe]([m5C])p.[moe]([m5C])[sp].[moe]([m5C])}$$$$ (last 3' nucleoside missing)”, the 3 h FOB score turned out to be 4 score 0-7. As for “RNA1{[moe](T)[sp].[moe](G)p.[moe]([m5C])p.[moe]([m5C])p.d(A)[sp].d(T)[sp].d(T)[sp].d(T)[sp].d(A)[sp].d(T)[sp].d([m5C])[sp].d(T)[sp].d(G)[sp].d(T)[sp].[moe](G)p.[moe]([m5C])p.[moe](T)p.[moe](T)[sp].[moe](T)}$$$$ (last 3' nucleoside missing)”, the 3 h FOB score came out at 0 score 0-7. “RNA1{[moe](T)[sp].[moe](T)p.[moe](A)p.[moe](T)p.[moe](T)[sp].d(T)[sp].d(T)[sp].d(T)[sp].d([m5C])[sp].d([m5C])[sp].d(T)[sp].d([m5C])[sp].d(A)[sp].[moe](G)p.[moe]([m5C])p.[moe](G)[sp].[moe](A)}$$$$ (last 3' nucleoside missing)” registered a 3 h FOB score of 0 score 0-7. As for “RNA1{[moe](T)[sp].[moe](T)p.[moe](G)p.[moe](A)p.[moe](G)[sp].d(A)[sp].d(T)[sp].d(A)[sp].d(T)[sp].d([m5C])[sp].d(T)[sp].d(T)[sp].d(G)[sp].[moe](T)p.[moe](G)p.[moe](A)[sp].[moe]([m5C])}$$$$ (last 3' nucleoside missing)”, the 3 h FOB score was found to be 3 score 0-7. As to “RNA1{[moe](T)[sp].[moe](T)p.[moe](G)p.[moe](A)p.[moe](G)[sp].d(A)[sp].d(T)[sp].d(A)[sp].d(T)[sp].d([m5C])[sp].d(T)[sp].d(T)[sp].d(G)[sp].d(T)[sp].d(G)[sp].[moe](A)p.[moe]([m5C])p.[moe]([m5C])[sp].[moe](T)}$$$$ (last 3' nucleoside missing)”, the 3 h FOB score was 4 score 0-7. Take “RNA1{[moe](T)[sp].[moe](T)p.[moe](G)p.[moe](A)p.[moe](G)p.d(A)[sp].d(T)[sp].d(A)[sp].d(T)[sp].d([m5C])[sp].d(T)[sp].d(T)[sp].d(G)[sp].d(T)[sp].d(G)[sp].[moe](A)p.[moe]([m5C])p.[moe]([m5C])[sp].[moe](T)}$$$$ (last 3' nucleoside missing)”: the 3 h FOB score stood at 3 score 0-7. In the case of “RNA1{[moe](T)[sp].[moe](T)p.[moe](G)p.[moe](G)p.[moe](T)p.[moe](G)p.d([m5C])[sp].d(T)[sp].d(T)[sp].d(T)[sp].d(T)[sp].d(G)[sp].d([m5C])[sp].d([m5C])[sp].d([m5C])[sp].d([m5C])[sp].[moe]([m5C])p.[moe](T)[sp].[moe](G)}$$$$ (last 3' nucleoside missing)”, the 3 h FOB score came out at 1 score 0-7. For the substance “RNA1{[moe](T)[sp].[moe](T)p.[moe](G)p.[moe](G)p.[moe](T)p.d(G)[sp].d([m5C])[sp].d(T)[sp].d(T)[sp].d(T)[sp].d(T)[sp].d(G)[sp].d([m5C])[sp].d([m5C])[sp].d([m5C])[sp].[moe]([m5C])p.[moe]([m5C])p.[moe](T)[sp].[moe](G)}$$$$ (last 3' nucleoside missing)”, the 3 h FOB score amounted to 0 score 0-7. “RNA1{[moe](T)[sp].[moe](T)p.[moe](G)p.[moe](G)p.[moe]([m5C])[sp].d(A)[sp].d(G)[sp].d(T)[sp].d(A)[sp].d(T)[sp].d(T)[sp].d(A)[sp].d([m5C])[sp].[moe]([m5C])p.[moe](T)p.[moe]([m5C])[sp].[moe](T)}$$$$ (last 3' nucleoside missing)”: the 3 h FOB score was 0 score 0-7.

In the case of “RNA1{[moe](T)[sp].[moe](T)p.[moe](G)p.[moe](G)p.[moe]([m5C])[sp].d(A)[sp].d(G)[sp].d(T)[sp].d(A)[sp].d(T)[sp].d(T)[sp].d(A)[sp].d([m5C])[sp].d([m5C])[sp].d(T)[sp].[moe]([m5C])p.[moe](T)p.[moe](A)[sp].[moe]([m5C])}$$$$ (last 3' nucleoside missing)”, the 3 h FOB score was determined as 2 score 0-7. As for “RNA1{[moe](T)[sp].[moe](T)p.[moe](G)p.[moe](G)p.[moe]([m5C])p.[moe](A)p.d(G)[sp].d(T)[sp].d(A)[sp].d(T)[sp].d(T)[sp].d(A)[sp].d([m5C])[sp].d([m5C])[sp].d(T)[sp].d([m5C])[sp].[moe](T)p.[moe](A)[sp].[moe]([m5C])}$$$$ (last 3' nucleoside missing)”, the 3 h FOB score came to 0 score 0-7. “RNA1{[moe](T)[sp].[moe](T)p.[moe](G)p.[moe](G)p.[moe]([m5C])p.d(A)[sp].d(G)[sp].d(T)[sp].d(A)[sp].d(T)[sp].d(T)[sp].d(A)[sp].d([m5C])[sp].d([m5C])[sp].d(T)[sp].[moe]([m5C])p.[moe](T)p.[moe](A)[sp].[moe]([m5C])}$$$$ (last 3' nucleoside missing)” registered a 3 h FOB score of 0 score 0-7.
